Source: patent publication US11787816B2, “Chlorin compound, and preparation and use thereof” (Southwest Jiaotong University, priority 2021, dated 2023)

Columns and labels:
[1] = system: human cervical cancer Hela cells; assay: Photosensitizer-mediated PDT, in vitro proliferation (MTT), Hela; assay type: cell-based; conditions: for cell viability (%): Hela; for toxicity to the cells when the drug is used alone without photodynamic treatment: summary statement for Hela, huh-7 and 4T1 cells
Experimental: (§1) Several kinds of tumor cells (human cervical cancer Hela cells, human hepatocellular carcinoma huh-7 cells and murine mammary carcinoma 4T1 cells) cultured in vitro from a variety of tissues were taken as cell models, so as to investigate the photodynamic effects mediated by different doses of CEFN, CEFO, Ce6 and HPPH on the three different tumor cells (n=3). The specific experimental procedures were carried out as follows.
(§2) Cells in the logarithmic growth phase were harvested and seeded in a 24-well plate. After growing to a confluence of 70-80%, the cells were randomly divided into a control group (free of drug and light irradiation), a drug group and a photodynamic group. The CEFN, CEFO, Ce6 and HPPH were added respectively in dark, and for each drug, four final concentrations 1, 2, 5, and 10 μg/mL were set with 3 replicates for each group. After the co-incubation, the groups were treated individually. Regarding the photodynamic group, the light irradiation was performed at a wavelength of 660 nm and three different light intensities, i.e., 2, 4 and 8 J/cm^2. After that, each group was digested, and were inoculated into a 96-well plate at 100 μL per well with 4 replicates for each treatment. 24 hours later, the 96-well plate was subjected to MTT assay as follows. Each well was added with 20 μL of MTT (3-4,5-dimethylthiazol-2,5-diphenyltetrazolium bromide) solution in the dark and incubated for 4 hours. The supernatant was discarded, and the residue was dissolved with 150 μL of dimethyl sulfoxide for 15 min. After that, the 96-well plate was measured by a microplate reader for the absorbance (OD value). The relative cell viability was calculated as follows: relative cell viability=OD value of experimental group/OD value of control group*100%.

[2] = system: murine mammary carcinoma 4T1 cells; assay: Photosensitizer-mediated PDT, in vitro proliferation (MTT), 4T1; assay type: cell-based
Experimental: as §1, §2
In this experiment, photodynamic effect mediated by the compounds (except CEFO and CEFN) in different Examples of this disclosure on the murine mammary carcinoma 4T1 cells was investigated. The experimental procedures are carried out as follows. Cells in the logarithmic growth phase were harvested and seeded in a 24-well plate. After growing to a confluence of 70-80%, the cells were randomly divided into multiple photodynamic groups and multiple no-light control groups. The compounds (as shown in Table 8a) with a final concentration of 10 μg/mL were added to each group respectively in dark with 3 replicates for each group, so as to co-incubate the cells with the drug. Regarding the multiple photodynamic groups, the light irradiation was performed at a wavelength of 660 nm and the light intensity of 8 J/cm^2. After that, each group was digested, and were inoculated into a 96-well plate at 100 μL per well with 4 replicates for light treatment and no light treatment. 24 hours later, the 96-well plate was measured by MTT assay as follows. Each well was added with 20 μL of MTT (3-4,5-dimethylthiazol-2,5-diphenyltetrazolium bromide) solution in the dark and incubated for 4 hours. The supernatant was discarded, and the residue was dissolved with 150 μL of dimethyl sulfoxide for 15 min. After that, the 96-well plate was measured by a microplate reader for the absorbance (OD value). The relative cell viability of the murine mammary carcinoma 4T1 cells was calculated as follows according to the measured absorbance (OD value) in each group: relative cell viability=OD value of experimental group/OD value of control group*100%.

[3] = system: murine mammary carcinoma 4T1 cells; assay: Antitumor activity as photosensitizers on tumor-bearing mice (one PDT treatment); assay type: in vivo; conditions: for Inhibitory rate (average ± SD, %) / Tumor weight (average ± SD, g): 660 nm, 75 Joule/cm^2 6 h after dosing, 7 days after PDT; for Body weight At the begining / Body weight At the end: one PDT treatment, mice, in g (unit assumed)
Experimental: (§3) The murine mammary carcinoma cells (4T1 line) were subjected to adherent culture. After growing to a confluence of 70%-80%, the cells in the culture flask were routinely digested, centrifuged and counted, and then resuspended with 0.85% normal saline to a density of 1×10^7 cells/mL. The cell suspension was injected into the left lateral middle axillary subcutaneous part of […] Bal b/c healthy mice (female, aged 6-8 weeks) at 0.1 mL/mouse. When the tumor diameter, which was observed every other day, reached 0.6-0.8 cm, the mice with well-growing tumors and no ulcers on the epidermis were selected for grouped treatment.
(1) Mice with similar body weight and uniform tumor size are selected and randomly divided into 7 groups with 6 mice for each group. After inoculation for 48 h, the mice were subjected to drug administration separately from the tail vein by group.
6 h after the drug administration, the mice were fixed to expose the tumor growth site. Light irradiation was performed for 8 min, using PDT-660 photodynamic therapy equipment at a laser wavelength of 660 nm and a light dose of 75 Joule/cm^2. Then both of the mice growth and tumor growth are observed continuously. 7 days after photodynamic therapy, the animals were sacrificed. The tumor was stripped and weighed, and the body weight was recorded.

[4] = system: murine mammary carcinoma 4T1 cells; assay: Antitumor activity as sonosensitizers (SDT) on tumor-bearing mice; assay type: in vivo; conditions: for Inhibitory rate (average ± SD, %) / Tumor weight (average ± SD, g): SDT 1.0 MHz, 3.0 W/cm^2, 3 min, 6 h after dosing, 7 days after SDT; for Body weight At the beginning / Body weight At the end: SDT, mice, in g (unit assumed)
Experimental: as §3
Mice with similar body weight and uniform tumor size are selected and randomly divided into 6 groups with 6 mice for each group. 48 h after inoculation, the mice were subjected to drug administration separately from the tail vein by group.
[…] 6 h after drug administration, each group of mice was anesthetized by intraperitoneal injection with 0.2 mL of 1% pentobarbital sodium. Then the mice were fixed to allow the tumor growth site exposed. The SDT group was treated using an ultrasonic therapeutic apparatus at an impulse waveform of 1.0 MHz and power of 3.0 W/cm^2 for 3 min. 7 days after SDT, the animals were sacrificed. The tumor was stripped and weighed, and the body weight was recorded.

## 3-hexoxymethyl-3-devinyl-chlorin e4 disodium salt [CEFO]
[1]; 1 μg/mL, 660 nm, 2 J/cm^2
  cell viability (%): 65 ± 3%
[1]; 1 μg/mL, 660 nm, 4 J/cm^2
  cell viability (%): 61 ± 3%
[1]; 1 μg/mL, 660 nm, 8 J/cm^2
  cell viability (%): 40 ± 2%
[1]; 1 μg/mL, no light
  cell viability (%): 101 ± 2%
[1]; 2 μg/mL, 660 nm, 2 J/cm^2
  cell viability (%): 54 ± 3%
[1]; 2 μg/mL, 660 nm, 4 J/cm^2
  cell viability (%): 45 ± 2%
[1]; 2 μg/mL, 660 nm, 8 J/cm^2
  cell viability (%): 25 ± 2%
[1]; 2 μg/mL, no light
  cell viability (%): 107 ± 2%
[1]; 5 μg/mL, 660 nm, 2 J/cm^2
  cell viability (%): 38 ± 2%
[1]; 5 μg/mL, 660 nm, 4 J/cm^2
  cell viability (%): 24 ± 3%
[1]; 5 μg/mL, 660 nm, 8 J/cm^2
  cell viability (%): 14 ± 4%
[1]; 5 μg/mL, no light
  cell viability (%): 109 ± 2%
[1]; 10 μg/mL, 660 nm, 2 J/cm^2
  cell viability (%): 25 ± 2%
[1]; 10 μg/mL, 660 nm, 4 J/cm^2
  cell viability (%): 4 ± 1%
[1]; 10 μg/mL, 660 nm, 8 J/cm^2
  cell viability (%): 3 ± 2%
[1]; 10 μg/mL, no light
  cell viability (%): 107 ± 2%
[1]; no light
  toxicity to the cells when the drug is used alone without photodynamic treatment: will not lower the cell viability
[2]; 1 μg/mL, 660 nm, 2 J/cm^2
  cell viability (%): 86 ± 3%
[2]; 1 μg/mL, 660 nm, 4 J/cm^2
  cell viability (%): 84 ± 4%
[2]; 1 μg/mL, 660 nm, 8 J/cm^2
  cell viability (%): 78 ± 3%
[2]; 1 μg/mL, no light
  cell viability (%): 103 ± 2%
[2]; 2 μg/mL, 660 nm, 2 J/cm^2
  cell viability (%): 67 ± 3%
[2]; 2 μg/mL, 660 nm, 4 J/cm^2
  cell viability (%): 41 ± 3%
[2]; 2 μg/mL, 660 nm, 8 J/cm^2
  cell viability (%): 39 ± 2%
[2]; 2 μg/mL, no light
  cell viability (%): 103 ± 2%
[2]; 5 μg/mL, 660 nm, 2 J/cm^2
  cell viability (%): 38 ± 2%
[2]; 5 μg/mL, 660 nm, 4 J/cm^2
  cell viability (%): 21 ± 2%
[2]; 5 μg/mL, 660 nm, 8 J/cm^2
  cell viability (%): 19 ± 42%
[2]; 5 μg/mL, no light
  cell viability (%): 99 ± 2%
[2]; 10 μg/mL, 660 nm, 2 J/cm^2
  cell viability (%): 29 ± 1%
[2]; 10 μg/mL, 660 nm, 4 J/cm^2
  cell viability (%): 5 ± 1%
[2]; 10 μg/mL, 660 nm, 8 J/cm^2
  cell viability (%): 3 ± 1%
[2]; 10 μg/mL, no light
  cell viability (%): 100 ± 3%
[3]; 0.2 mg/kg tail vein
  Inhibitory rate (average ± SD, %): 87.0 ± 3.1%
  Tumor weight (average ± SD, g): 0.021 ± 0.005 g
[3]; 0.2 mg/kg
  Body weight At the begining: 20.4 ± 0.3
  Body weight At the end: 21.5 ± 0.3
[3]; 0.4 mg/kg tail vein
  Inhibitory rate (average ± SD, %): 97.5 ± 0.4%
  Tumor weight (average ± SD, g): 0.004 ± 0.001 g
[3]; 0.4 mg/kg
  Body weight At the begining: 20.7 ± 0.4
  Body weight At the end: 21.8 ± 0.4
[4]; 2.5 mg/kg tail vein
  Inhibitory rate (average ± SD, %): 64.3 ± 4.3%
  Tumor weight (average ± SD, g): 0.061 ± 0.007 g
[4]; 2.5 mg/kg
  Body weight At the beginning: 20.4 ± 0.3
  Body weight At the end: 21.4 ± 0.3
[4]; 5 mg/kg tail vein
  Inhibitory rate (average ± SD, %): 84.2 ± 2.9%
  Tumor weight (average ± SD, g): 0.027 ± 0.004 g
[4]; 5 mg/kg
  Body weight At the beginning: 20.2 ± 0.2
  Body weight At the end: 21.3 ± 0.2

## 3-n-hexylaminomethyl-3-devinyl-chlorin e4 disodium salt [CEFN]
[1]; 1 μg/mL, 660 nm, 2 J/cm^2
  cell viability (%): 98 ± 3%
[1]; 1 μg/mL, 660 nm, 4 J/cm^2
  cell viability (%): 99 ± 1%
[1]; 1 μg/mL, 660 nm, 8 J/cm^2
  cell viability (%): 78 ± 3%
[1]; 1 μg/mL, no light
  cell viability (%): 103 ± 2%
[1]; 2 μg/mL, 660 nm, 2 J/cm^2
  cell viability (%): 78 ± 3%
[1]; 2 μg/mL, 660 nm, 4 J/cm^2
  cell viability (%): 62 ± 2%
[1]; 2 μg/mL, 660 nm, 8 J/cm^2
  cell viability (%): 51 ± 3%
[1]; 2 μg/mL, no light
  cell viability (%): 99 ± 2%
[1]; 5 μg/mL, 660 nm, 2 J/cm^2
  cell viability (%): 43 ± 3%
[1]; 5 μg/mL, 660 nm, 4 J/cm^2
  cell viability (%): 32 ± 4%
[1]; 5 μg/mL, 660 nm, 8 J/cm^2
  cell viability (%): 21 ± 3%
[1]; 5 μg/mL, no light
  cell viability (%): 106 ± 2%
[1]; 10 μg/mL, 660 nm, 2 J/cm^2
  cell viability (%): 36 ± 3%
[1]; 10 μg/mL, 660 nm, 4 J/cm^2
  cell viability (%): 17 ± 2%
[1]; 10 μg/mL, no light
  cell viability (%): 104 ± 2%
[1]; no light
  toxicity to the cells when the drug is used alone without photodynamic treatment: will not lower the cell viability
[2]; 1 μg/mL, 660 nm, 2 J/cm^2
  cell viability (%): 97 ± 2%
[2]; 1 μg/mL, 660 nm, 4 J/cm^2
  cell viability (%): 89 ± 3%
[2]; 1 μg/mL, 660 nm, 8 J/cm^2
  cell viability (%): 81 ± 3%
[2]; 1 μg/mL, no light
  cell viability (%): 97 ± 3%
[2]; 2 μg/mL, 660 nm, 2 J/cm^2
  cell viability (%): 79 ± 3%
[2]; 2 μg/mL, 660 nm, 4 J/cm^2
  cell viability (%): 52 ± 2%
[2]; 2 μg/mL, 660 nm, 8 J/cm^2
  cell viability (%): 39 ± 2%
[2]; 5 μg/mL, 660 nm, 2 J/cm^2
  cell viability (%): 59 ± 2%
[2]; 5 μg/mL, 660 nm, 4 J/cm^2
  cell viability (%): 24 ± 3%
[2]; 5 μg/mL, 660 nm, 8 J/cm^2
  cell viability (%): 18 ± 1%
[2]; 5 μg/mL, no light
  cell viability (%): 98 ± 2%
[2]; 10 μg/mL, 660 nm, 2 J/cm^2
  cell viability (%): 38 ± 3%
[2]; 10 μg/mL, 660 nm, 4 J/cm^2
  cell viability (%): 10 ± 2%
[2]; 10 μg/mL, 660 nm, 8 J/cm^2
  cell viability (%): 8 ± 3%
[2]; 10 μg/mL, no light
  cell viability (%): 101 ± 3%
[3]; 0.2 mg/kg tail vein
  Inhibitory rate (average ± SD, %): 68.5 ± 1.7%
  Tumor weight (average ± SD, g): 0.051 ± 0.003 g
[3]; 0.2 mg/kg
  Body weight At the begining: 20.6 ± 0.6
  Body weight At the end: 21.7 ± 0.5
[3]; 0.4 mg/kg tail vein
  Inhibitory rate (average ± SD, %): 82.7 ± 3.7%
  Tumor weight (average ± SD, g): 0.028 ± 0.006 g
[3]; 0.4 mg/kg
  Body weight At the begining: 20.5 ± 0.4
  Body weight At the end: 21.6 ± 0.5
[4]; 2.5 mg/kg tail vein
  Inhibitory rate (average ± SD, %): 42.1 ± 4.2%
  Tumor weight (average ± SD, g): 0.099 ± 0.007 g
[4]; 2.5 mg/kg
  Body weight At the beginning: 20.5 ± 0.3
  Body weight At the end: 21.6 ± 0.2
[4]; 5 mg/kg tail vein
  Inhibitory rate (average ± SD, %): 66.7 ± 3.0%
  Tumor weight (average ± SD, g): 0.057 ± 0.005 g
[4]; 5 mg/kg
  Body weight At the beginning: 20.3 ± 0.2
  Body weight At the end: 21.3 ± 0.3
